In brackets after ≈: the same amount, converted by molar mass.
Key:
[1] = tested on: caspase-3 in Caco-2 cells; test: Caspase-3 ELISA in treated Caco-2 cells; format: cell-based, human; conditions: Caco-2 cells treated at the IC50 value, mean ± SE, n = 3
Procedure: (§1) Following the treatment of HepG-2, Caco-2, A549, and BJ-1 cells with the SB-CuO-NPs at their respective IC50 values, as illustrated in Figure 9 and detailed in Table 5, an assessment of the activities of the caspase-3 and Bcl-2 enzymes was conducted in the treated cells. […] This mechanism ultimately triggers apoptosis. Additionally, the increased activity of caspase-3 results in a decrease in the expression of cyclin D1 and CDK-2 mRNA, thereby promoting the arrest of the G1 phase of the cell cycle. Othman et al. further noted that the biosynthesized M-NPs facilitate apoptosis by inhibiting the expression of the PI3K/AKT and Ras/Raf/ERK protein signaling pathways.
(§2) Invitrogen Corporation, following the manufacturer's instructions.

[2] = Iron reducing power (IRP); conditions: samples at 100 µg/mL; mean ± SE, n = 3
Procedure: ammonium molybdate. Methanol (80%) was used in place of the sample for the blank. The tubes were sealed and incubated in a boiling water bath for 90 minutes.
After cooling to room temperature, the absorbance was measured at 695 nm against the blank. […] was used at the same concentrations as a standard. The antioxidant capacity was expressed as mg gallic acid equivalent per gram weight.
The iron reducing power was determined as µg/mL using the method proposed by Oyaizu (1986). In brief, 1ml of the tested sample (at each concentration) was combined with 1mL of 200mM sodium phosphate buffer (pH 6.6) and 1mL of 1% potassium ferricyanide. […] The absorbance was measured at 700nm against a blank prepared without the sample. […] A high absorbance at 700nm indicates a higher reducing power in the reaction mixture.
The 1,1-Diphenyl-2-picryl-hydrazyl (DPPH) radical scavenging activities were evaluated using the method described by Rahman et al. An antioxidant substance capable of donating a hydrogen atom to a solution containing DPPH- can reduce the stable free radical, causing the solution to change color from violet to pale yellow.
The remaining DPPH- radical was quantified by measuring the intensity of a light-purple colored DPPH methanol solution in the visible range at 518 nm using a spectroscopic method. […]

Bcl-2 in HepG-2 cells = test: Bcl-2 ELISA in treated HepG-2 cells; format: cell-based, human; conditions: HepG-2 cells treated at the IC50 value, mean ± SE, n = 3
Procedure: as §1, §2

[3] = tested on: human colon cancer (Caco-2) cell line; test: MTT cytotoxicity, Caco-2
[4] = Total antioxidant capacity (TAC), phosphomolybdenum method; conditions: samples at 100 µg/mL; mean ± SE, n = 3
Procedure: 1. Preparation of SB-CuO-NPs
The copper oxide nanoparticles (CuO-NPs) were biosynthesized using a concentrated anhydrous copper sulfate solution (1 mM) as a metal precursor based […]
dissolved in 100 ml of deionized water to form a 0.1 M concentration. The Schiff base (SB) was mixed with the metal solution in a ratio of 4:1. The SB-CuO-NPs was monitored by a color change. They were dried at 80 °C after centrifuging the colloidal solution at 4000 rpm for 15 min.
2. Characterization of the SB-CuO-NPs
The spectra of the SB-CuO-NPs were characterized using a Shimadzu UV-VIS recording spectrophotometer UV-240 after diluting the samples (10-fold) with deionized water at λ 200 - 800 nm. Their surface zeta potentials were measured using the laser zeta meter (Malvern Zetasizer 2000, Malvern, Worcestershire, UK) following […]
Moreover, their average hydrodynamic sizes were determined using the laser diffraction method with multiple scattering techniques employing dynamic light scattering (DLS) (Malvern Zetasizer Nano ZS, Malvern Instruments Ltd., Malvern, United Kingdom) (Murdock et al., 2008). […]
All biological activities were assessed in the prepared samples at equal concentrations (100 µg/mL). […]
After cooling to room temperature, the absorbance was measured at 695 nm against the blank. […] The antioxidant capacity was expressed as mg gallic acid equivalent per gram weight. […]

[5] = target: T1, 5-LOX enzyme (human recombinant) (Homo sapiens, UniProt P09917); test: 5-Lipoxygenase inhibition assay; format: biochemical; conditions: mean ± SE, n = 3
T1 construct: purchased Sigma-Aldrich 437996
T1 sequence (P09917 1-674): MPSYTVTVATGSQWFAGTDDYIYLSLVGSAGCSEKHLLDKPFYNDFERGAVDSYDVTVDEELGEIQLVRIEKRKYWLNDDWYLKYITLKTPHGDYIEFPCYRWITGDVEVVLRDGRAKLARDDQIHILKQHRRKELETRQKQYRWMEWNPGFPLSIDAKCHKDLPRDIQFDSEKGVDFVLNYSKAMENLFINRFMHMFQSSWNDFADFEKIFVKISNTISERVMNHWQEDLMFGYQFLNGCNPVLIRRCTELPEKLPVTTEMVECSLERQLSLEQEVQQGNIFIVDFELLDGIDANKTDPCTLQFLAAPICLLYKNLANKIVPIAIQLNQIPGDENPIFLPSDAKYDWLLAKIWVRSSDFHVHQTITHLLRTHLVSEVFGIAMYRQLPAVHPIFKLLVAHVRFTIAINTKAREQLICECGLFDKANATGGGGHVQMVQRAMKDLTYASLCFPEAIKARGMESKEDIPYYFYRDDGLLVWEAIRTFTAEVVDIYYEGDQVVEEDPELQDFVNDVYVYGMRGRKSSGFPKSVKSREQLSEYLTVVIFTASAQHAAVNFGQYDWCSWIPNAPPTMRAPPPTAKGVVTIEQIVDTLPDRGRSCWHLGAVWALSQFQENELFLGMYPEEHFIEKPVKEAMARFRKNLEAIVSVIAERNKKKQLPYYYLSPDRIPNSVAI

For `Cc1nn(-c2ccccc2)c(Cl)c1C=NN=C1C(=O)Nc2ccccc21` [SB], the Caspase-3 [1] was 144.28 ± 0.22 pg/mL, the “Antioxidant activity IRP” value [2] was 47.66 ± 0.19 µg/mL and the Bcl-2 (Bcl-2 in HepG-2 cells) was 7.32 ± 0.10 ng/mL. The viability at 31.13 µg/mL ([3]; Caco-2) was 86%, the viability at 62.5 µg/mL ([3]; Caco-2) was 72.2% and the viability at 125 µg/mL ([3]; Caco-2) was 48.6%. The viability at 250 µg/mL ([3]; Caco-2) was 38.4%, the viability at 500 µg/mL ([3]; Caco-2) was 18.6% and the IC50 ([3]; Caco-2, 48 h, read-out: Median Inhibitory Concentration (IC50) Caco-2) was 115 ± 3.25 µg/mL (≈ 317 µM). The “Antioxidant activity TAC” value [4] was 65.41 ± 0.19 mg gallic acid/g, the inhibition at 100 µg/mL ([5]; at 100 µg/mL, read-out: 5-LOX Inhib. (%)) was 26.71 ± 0.18% and the IC50 [5] was 36.6 µM.
